Like-named read-outs stand apart in the source and are kept apart here. Residues, ends and D or L forms follow the SMILES beside them. *: point of attachment. Cbz = O=C(OCc1ccccc1)*
Tests used:
p53 and cFos = experiment: Single-cell analysis of nuclear p53 vs cFos intensity; format: cell-based, human; conditions: HeLa, 20 hrs, FIG. 34
Excerpt: FIG. 34 is a single-cell analysis showing differing patterns of dose-dependent p53 and cFos responses to different drugs. A. Scatter plot of average nuclear p53 intensity vs. average cFos intensity in a typical control well and representative image. The bright cells at the top of the image are in mitosis. B. Dose-dependent increases in response to MG132 shown in heat maps are correlated in scatter plots and images (orange nuclei). C. Dose-dependent increases in response to camptothecin shown in heat maps are anti-correlated in scatter plots and images. The black (cFos) and green (p53) heat map values for the highest dose reflect the contribution of apoptotic cells with negligible p53 and cFos nuclear staining.
Extensions of cytological profiling to reflect dependencies among descriptors will allow more sophisticated analysis of drug responses at a systems level. For example, both p53 and cFos, a transcription factor involved in MAP-kinase signalling, are involved in cell stress responses, but the interrelationship of the p53 and MAP-kinase pathways is poorly understood (B. Kaina, Biochem Pharmacol 66:1547 (Oct. 15, 2003); incorporated herein by reference). […]

[1] = test system: HeLa (human cancer) cells; experiment: Cytological dose-response profiling by automated fluorescence microscopy (KS statistic z-scores, 93 descriptors); format: cell-based; conditions: for response of compound profile (heat plot): 13-point titration
Experimental: The known drug set was chosen to cover common mechanisms of toxicity or therapeutic action in cancer and other diseases, and to include several groups with a common target (macromolecule or pathway) but unrelated structures. We analyzed thirteen 3-fold dilutions of each drug, covering a final concentration range on cells from micromolar to picomolar. (Table 3 and Materials & Methods). HeLa (human cancer) cells were cultured in 384-well plates to near confluence, treated with drugs for 20 hrs, fixed, and stained with fluorescent probes for various cell components and processes. We chose 11 distinct probes that covered a range of cell biology, multiplexing a DNA stain and two antibodies per well (the probe sets are: (SC35, anillin), (α-tubulin, actin), (phospho-p38, phospho-ERK), (p53, cFos), (phospho-CREB, calmodulin)). Using automated fluorescence microscopy, we collected images of up to ˜8000 cells from each well. 26 wells on each plate were treated only with DMSO to generate a control population. The experiment was performed twice in parallel to provide a replicate dataset. Image segmentation procedures were used to automatically identify nuclei and nuclear organelles, and cytoplasmic regions were approximated as an annulus surrounding each identified nucleus (FIG. 31A). For each cell, region, and probe, a set of descriptors was measured. These included measures of size, shape, and intensity, as well as ratios of intensities between regions (93 descriptors total, Table S3).
For profiling studies, it is useful to reduce each population of descriptor values to a single number. […] We devised a measure based on the Kolmogorov-Smirnov (KS) statistic, allowing nonparametric comparison of experimental and control distributions from the same plate (FIGS. 31B and 35). […] In particular, the relationship between z-score and the original physical measure may be non-linear.
Cell culture. 20 hours before compound addition, Hela cells grown in […] dishes were trypsinized, resuspended in DMEM supplemented with 10% FCS and 10 ug/mL penicillin/streptomycin, and plated in 384-well plates at an initial density of 3,000 cells per well, 40 uL per well. Compounds were purchased from Sigma (St. Louis, MO), Calbiochem (EMD Biosciences, San Diego, Calif.) and Tocris (Elliksville, MO) and are listed in Table 2. Compound stocks were prepared in DMSO and then arrayed on 384-well plates in 16 consecutive 1:3 serial dilutions in DMSO as outlined in Table 3. The highest and two lowest dilutions (rows A, 0 and P) were not used for subsequent analysis as the wells due to persistent edge effects, leaving us with a series of 13 dilutions. Each stock was diluted 16-fold in warmed culture medium, and 8 μl of this solution was added to the plated cells, resulting in a 96-fold final dilution. All conditions were performed in duplicate in separate plates. Cells were incubated at 37° C. for 20 hours, then fixed in 3% formaldehyde in PBS. All liquid handling was performed using a programmed TekBench (TekCel, Hopkinton, Mass.).
Markers. Five sets of markers were stained by standard immunofluorescence methods in this study.

[2] = test system: HeLa (human cancer) cells; experiment: Hierarchical clustering of compound profiles by titration-invariant similarity score (TISS); format: cell-based
Excerpt: When comparing drug mechanism, changes in specificity, and thus phenotype, are relevant but changes in affinity, and thus PEC, are not. […] We developed a titration-invariant similarity score (TISS) to allow comparison between dose-response profiles independent of starting dose.
Titration-invariant similarity score (TISS) for comparing descriptor and compound vectors. We developed a “titration-invariant” similarity score (TISS) to assess the similarity of compounds independent of the starting point of their titration series. The TISS between two compounds is calculated in three steps: (1) we define the notion of a titration sub-series for each compound to account for different possible starting concentrations (FIGS. 35 and 36B); (2) we define a correlation for pairs of these sub-series (FIG. 36B); (3) we define a similarity measure derived from the strongest correlation over a determined range of these sub-series (FIG. 36B).
(1) For each compound c, the complete set of z-scores across all descriptors and titrations defines a DxT-dimensional vector: Xc=(zc,l,l, . . . , zc,D,l, . . . , zc,l,T, . . . , zc,D,T), where D is the number of descriptors (=93) and T is the number of titrations (=13). In order to allow comparisons of compounds with different titration starting points, we define titration sub-series as follows: Xc(s)=(zc,l,l, . . . , zc,D,l, . . . , zc,l,T−s, . . . , zc,D,T−s) and Xc(−s)=(zc,l,s, . . . , zc,D,s, . . . , zc,l,T, . . . , zc,D,T). Intuitively, by truncating starting or ending titrations, these definitions allow us to “shift” the starting point for the titration series.
(2) For all compound vectors Xi and Xj, we define their s-correlation: xij(s)=<Xi, Xj>(s)=<Xi(s), Xj(−s)>/(∥Xi(s)∥ ∥Xj(−s)∥)
(we use the standard notation <A, B>=ΣiAiBi and ∥A∥^2=<A,A>). Thus, <Xi, Xj>(0) measures the standard correlation of vectors Xi and Xj, while <Xi, Xj>(1) drops the first titration for compound Xj and the last for Xi before measuring their correlation. For each s, we built a 200×200 such correlation matrix X(s)=(xij(s)) using all of the compounds from each of the two replicates.
(3) Given a range −S≦s≦S, we wish to look for the value of s that gives the highest correlation between two vectors.
Clustering compound and descriptor vectors. We performed standard hierarchical clustering of replicate-averaged compound (FIG. 33) or descriptor (FIG. 39) vectors using the pdist and linkage functions in Matlab. pdist was defined by the TISS for each pair of vectors. […] Compound 50 was not present in all datasets and so was also excluded.

transcription = experiment: Preliminary in vitro transcription experiments; format: biochemical
[3] = HeLa cells, 20 hrs, thirteen 3-fold dilutions, Y = profile response above signal threshold
[4] = unsupervised hierarchical clustering of the 61 responsive compounds

| Molecule | Used in clustering (FIG. 33) [1, 3] | clustering of compound profile by TISS (FIG. 33) [2, 4] | response of compound profile (heat plot) ([1]; HeLa, 20 hrs) | further results |
| --- | --- | --- | --- | --- |
| CC(C)C[C@@H](C=O)NC(=O)[C@H](CC(C)C)NC(=O)[C@H](CC(C)C)NC(=O)OCc1ccccc1 [Compound 38, MG132] (Cbz-Leu-Leu-Leu-aldehyde) | Y | – | – | relation of dose-dependent p53 and cFos responses in single cells (p53 and cFos): increased correlated induction |
| CC[C@H](C)[C@H]1NC(=O)[C@@H](NC(=O)[C@@H](CC(C)C)N(C)C(=O)[C@@H]2CCCN2C(=O)C(C)O)[C@@H](C)OC(=O)[C@H](Cc2ccc(OC)cc2)N(C)C(=O)[C@@H]2CCCN2C(=O)[C@H](CC(C)C)NC(=O)[C@@H](C)C(=O)[C@H](C(C)C)OC(=O)C[C@@H]1O (stereo partly drawn) [Compound 98, Didemnin B] | Y | clustered with ribosome inhibitors | – | – |
| CC[C@H](CO)Nc1nc(NCc2ccccc2)c2ncn(C(C)C)c2n1 [Compound 49, Roscovitine] | – | – | – | Used in clustering (FIG. 33) [1]: Y; clustering of compound profile by TISS (FIG. 33) [2]: did cluster |
| CC(C)[C@H](CO)Nc1nc(Nc2cccc(Cl)c2)c2ncn(C(C)C)c2n1 [Compound 46, Purvalanol A] | Y | did cluster | – | – |
| CC[C@H]1CN2CCc3cc(OC)c(OC)cc3[C@@H]2C[C@@H]1C[C@H]1NCCc2cc(OC)c(OC)cc21 [Compound 96, Emetine] | Y | clustered closely with their unblinded counterparts and compounds of similar reported mechanism | significant responses | – |
| CC[C@@]1(O)C(=O)OCc2c1cc1n(c2=O)Cc2cc3ccccc3nc2-1 [Compound 10, Camptothecin] | Y | – | – | relation of dose-dependent p53 and cFos responses in single cells (p53 and cFos): anti-correlated; anillin nuclear level ([1]; HeLa, 20 hrs, G2 arrested state): marked nuclear accumulation; total DNA content / cell cycle response ([1]; HeLa, 20 hrs, as drug concentration increases): arrest with S/G2 DNA content; apoptosis ([1]; HeLa, 20 hrs, at the highest concentrations): widely induced; p53 induction ([1]; HeLa, 20 hrs, concentrations sufficient to promote G2 arrest): much less so; p53 induction ([1]; HeLa, 20 hrs, high concentrations): strongly induced; p53 response (z-score heat plot) ([1]; HeLa, 20 hrs, low doses, FIG. 31C): statistically significant responses |
| O=C(CCCCCN1C(=O)c2cccc3cccc(c23)C1=O)NO [Compound 97, Scriptaid] | Y | clustered closely with their unblinded counterparts and compounds of similar reported mechanism | significant responses | – |
| Cn1cnc2c(NCc3ccccc3)nc(NCCO)nc21 [Compound 42, Olomucine] | Y | did cluster | – | – |
| Austocystin [Compound 99] | Y | clusters with transcription and translation inhibitors | strong responses | inhibition of transcription in vitro (transcription): inhibits transcription in vitro |
| NC(=O)NO [Compound 94, Hydroxyurea] | Y | clustered closely with their unblinded counterparts and compounds of similar reported mechanism | significant responses | – |
| C/C(=C\c1csc(C)n1)[C@@H]1C[C@@H]2O[C@]2(C)CCC[C@H](C)[C@H](O)[C@@H](C)C(=O)C(C)(C)[C@@H](O)CC(=O)O1 [Compound 77, Epothilone B] | Y | – | – | – |
| C[C@H]1CCC/C=C/[C@@H]2C[C@H](O)C[C@H]2[C@H](O)/C=C/C(=O)O1 [Compound 8, Brefeldin A] | Y | – | – | – |
| CC[C@H]1/C=C/C=C/C[C@@H](C)[C@H](O)[C@@](C)(O)C(=O)[C@@H](C)[C@H](O)[C@@H](C)C(=O)[C@@H](C)[C@H](O)[C@@H](C)/C=C/C(=O)O[C@@H]2[C@H](C)[C@H](CC1)O[C@]1(CC[C@H](C)[C@H](C[C@@H](C)O)O1)[C@H]2C [Compound 90, Oligomycin] | Y | – | – | – |
| CCCCCc1ccc(-c2ccc(/C=C/C(N)=O)cc2)nc1 [Compound 100, Concentramide] | Y | difficult to interpret | strong responses | – |
| CN(Cc1cnc2nc(N)nc(N)c2n1)c1ccc(C(=O)N[C@@H](CCC(=O)O)C(=O)O)cc1 [Compound 83, Methotrexate] | Y | – | – | – |
| COc1cc2c(c(OC)c1OC)-c1ccc(OC)c(=O)cc1[C@@H](NC(C)=O)CC2 [Compound 13, Colchicine] | Y | – | – | – |
